# In patent publication US12090204B2, “Photodynamic therapy compositions and methods of use thereof” (Pinnacle Biologics, Inc., priority 2020, dated 2024):
# Legend:
# Test in all cases: porfimer sodium aPDT, planktonic culture
# [1] = test system: N. gonorrhoea (−); assay type: cell-based, Neisseria gonorrhea; conditions: 630 nm, 200 J/cm2, porfimer sodium 125 μg/mL
# Protocol: (§1) Bacteria were routinely cultured using tryptic soy broth or agar at 37° C. in a 5% CO2 incubator. Bacteria were isolated and suspended with 0.9% NaCl to an Optical Density (OD) of 0.1 taken at 630 nm, to generate the inoculum used for either planktonic or biofilm assays.
# (§2) Experiments using planktonic cultures were carried out using M. catarrhalis, as a standard for further comparisons and to determine the effective drug concentration, porfimer sodium incubation time and light dose parameters which would provide an effective cell kill at the level of 5-7 logs. Once determined the experiments were repeated for all other bacterial strains examined.
# (§3) The colony forming units (CFU) per mL of the starting inoculum for every experiment was determined by dilution plating. […]
# (§4) Bacteria were exposed to 630 nm laser light via a fiber optic with a lens affixed to the distal end to provide a uniform diverging light field. […] Power output of the laser was measured using a UDT/Gamma Scientific 371 optical power meter and an integrating sphere. […]
# (§5) Biofilms were formed on glass coupons in culture dishes containing a bacterial inoculum for 48 hours under conditions specific to the strain. […] Power output of the laser was measured using a UDT/Gamma Scientific 371 optical power meter and an integrating sphere. […]
# [2] = test system: P. acnes (+); assay type: cell-based, Proprionibacterium acnes (Cutibacterium acnes); conditions: 630 nm, kill at 75 J/cm2 (light dose 50-100 J/cm2), porfimer sodium 150 μg/mL
# Protocol: as §1, §2, §3, §4, §5
# [3] = test system: F. nucleatum (−); assay type: cell-based, Fusobacterium nucleatum; conditions: 630 nm, 50 J/cm2, porfimer sodium 125 μg/mL
# Protocol: as §1, §2, §3, §4, §5
# [4] = test system: B. thurigiensis (+); assay type: cell-based, Bacillus thuringiensis; conditions: 630 nm, 200 J/cm2, porfimer sodium 125 μg/mL
# Protocol: as §1, §2, §3, §4, §5
# [5] = test system: H. influenza (−); assay type: cell-based, Haemophilus influenza; conditions: 630 nm, 200 J/cm2, porfimer sodium 125 μg/mL
# Protocol: as §1, §2, §3, §4, §5
# [6] = test system: P. gingivalis (−); assay type: cell-based, Porphyromonas gingivalis; conditions: 630 nm, kill at 75 J/cm2 (light dose 50-100 J/cm2), porfimer sodium 150 μg/mL
# Protocol: as §1, §2, §3, §4, §5
substance,measurement,setting,value
porfimer sodium,Rate of kill,[1],4Log
same,Rate of kill,[2],7Log
same,Rate of kill,[3],3Log
same,Rate of kill,[4],>6Log
same,Rate of kill,[5],4Log
same,Rate of kill,[6],7Log
